Measurements taken from the supplement of paper PMC13380429.

What was measured:
Conditions in all cases: 72 h
[1] = tested on: Caco-2; assay: cell viability relative to DMSO; higher = less toxic
[2] = tested on: Calu-3; assay: as above
[3] = tested on: HepG2; assay: as above
[4] = tested on: U2OS; assay: as above
[5] = tested on: Vero E6; assay: as above
[6] = tested on: Caco-2; assay: relative viability EC50 (midpoint between 100% and the lowest measured viability); higher = less toxic
[7] = tested on: Calu-3; assay: as above
[8] = tested on: HepG2; assay: as above
[9] = tested on: U2OS; assay: as above
[10] = tested on: Vero E6; assay: as above
[11] = tested on: Caco-2; assay: drug sensitivity score (DSS) for viability; higher = more toxic; extreme values may be limits of the assay
[12] = tested on: Calu-3; assay: as above
[13] = tested on: HepG2; assay: as above
[14] = tested on: U2OS; assay: as above
[15] = tested on: Vero E6; assay: as above

Row | SMILES | cell viability ([1]; 1 nM) | cell viability ([1]; 10 nM) | cell viability ([1]; 100 nM) | cell viability ([1]; 1000 nM) | cell viability ([1]; 10000 nM) | cell viability ([2]; 1 nM) | cell viability ([2]; 10 nM) | cell viability ([2]; 100 nM) | cell viability ([2]; 1000 nM) | cell viability ([2]; 10000 nM) | cell viability ([3]; 1 nM) | cell viability ([3]; 10 nM) | cell viability ([3]; 100 nM) | cell viability ([3]; 1000 nM) | cell viability ([3]; 10000 nM) | cell viability ([4]; 1 nM) | cell viability ([4]; 10 nM) | cell viability ([4]; 100 nM) | cell viability ([4]; 1000 nM) | cell viability ([4]; 10000 nM) | cell viability ([5]; 1 nM) | cell viability ([5]; 10 nM) | cell viability ([5]; 100 nM) | cell viability ([5]; 1000 nM) | cell viability ([5]; 10000 nM) | relative viability EC50 [6] | relative viability EC50 [7] | relative viability EC50 [8] | relative viability EC50 [9] | relative viability EC50 [10] | drug sensitivity score [11] | drug sensitivity score [12] | drug sensitivity score [13] | drug sensitivity score [14] | drug sensitivity score [15]
1 | O=C(O)[C@H]1CN(C/C=C/P(=O)(O)O)CCN1 [midafotel] | 102% | 101% | 97.4% | 102% | 98.3% | 97.6% | 94.8% | 105% | 111% | 97.4% | 97.5% | 94% | 104% | 93.1% | 107% | 96.3% | 104% | 99% | 103% | 106% | 95.5% | 93.9% | 95.6% | 91.9% | 106% | > 10 µM | > 10 µM | > 10 µM | > 10 µM | > 10 µM | 0 | 0 | 0 | 0 | 0
2 | CCOC(=O)[C@H](CCc1ccccc1)N[C@@H](C)C(=O)N1Cc2cc(OC)c(OC)cc2C[C@H]1C(=O)O [moexipril] | 106% | 96% | 101% | 89.3% | 98.2% | 97% | 97% | 107% | 111% | 104% | 95.8% | 98.6% | 96% | 95.5% | 92.2% | 96% | 102% | 92.8% | 100% | 95.7% | 96.2% | 102% | 96.6% | 96.9% | 102% | > 10 µM | > 10 µM | > 10 µM | > 10 µM | > 10 µM | 0 | 0 | 0 | 0 | 0
3 | NC(=O)Cc1cccc(C(=O)c2ccccc2)c1N [nepafenac] | 96.6% | 94.9% | 90.7% | 102% | 90.7% | 101% | 97.9% | 95.6% | 95.3% | 97.9% | 116% | 94.8% | 100% | 99.9% | 105% | 99.5% | 102% | 94.5% | 98.8% | 93.5% | 106% | 104% | 106% | 99.3% | 102% | > 10 µM | > 10 µM | > 10 µM | > 10 µM | > 10 µM | 0 | 0 | 0 | 0 | 0
4 | NC(=O)c1cc([N+](=O)[O-])cc([N+](=O)[O-])c1 [nitromide] | 97.5% | 95.2% | 95.8% | 104% | 104% | 93.9% | 101% | 95% | 105% | 112% | 112% | 95.1% | 99.7% | 119% | 104% | 100% | 98.4% | 101% | 96.5% | 107% | 98.3% | 96.6% | 93.6% | 94.5% | 108% | > 10 µM | > 10 µM | > 10 µM | > 10 µM | > 10 µM | 0 | 0 | 0 | 0 | 0
5 | CNC(=O)N(C)N=O [nitrosodimethylurea] | 85.7% | 106% | 94.7% | 86.9% | 116% | 111% | 103% | 100% | 91.6% | 109% | 88.6% | 100% | 103% | 100% | 97.7% | 99.8% | 95.7% | 95.1% | 98% | 108% | 93.6% | 92.4% | 95.4% | 86.3% | 97.9% | > 10 µM | > 10 µM | > 10 µM | > 10 µM | > 10 µM | 0 | 0 | 0 | 0 | 0
6 | C/C=C1/[C@H](O[C@@H]2O[C@H](CO)[C@@H](O)[C@H](O)[C@H]2O)OC=C(C(=O)OC)[C@H]1CC(=O)OCCc1ccc(O)c(O)c1 [oleuropein] | 101% | 108% | 99.9% | 101% | 88.8% | 90.8% | 98.8% | 101% | 102% | 93.6% | 101% | 97.1% | 98.1% | 108% | 84.4% | 105% | 98.7% | 101% | 95.1% | 97.8% | 98.8% | 103% | 98.7% | 105% | 95.2% | > 10 µM | > 10 µM | > 10 µM | > 10 µM | > 10 µM | 0 | 0 | 0.1 | 0 | 0
7 | Cc1nccn1CC1CCc2c(c3ccccc3n2C)C1=O (stereo not given) [ondansetron] | 102% | 99.4% | 94.1% | 81.2% | 104% | 84.8% | 90.1% | 81.6% | 97.6% | 89.2% | 95.6% | 83.5% | 97% | 105% | 93.3% | 96.5% | 99.4% | 103% | 99.4% | 102% | 101% | 97.4% | 103% | 95.6% | 103% | > 10 µM | > 10 µM | > 10 µM | > 10 µM | > 10 µM | 0 | 0 | 0 | 0 | 0
